Measured values taken from patent publication US8956648B2, “Calciumphosphate-based nanoparticles as carrier-systems for photodynamic therapy” (Biolitec PharmaMarketing Ltd, priority 2008, dated 2015).

Tested on: human colon adenocarcinoma cell line HT29
Experiment: Photodynamic cell test on HT29 tumor cell line (XTT viability after laser irradiation)
Format: cell-based
Settings: HT29 cells, 24 h incubation, 652 nm diode laser 50 J cm^−2, XTT assay
Description: The photosensitizing activity was determined in the human colon adenocarcinoma cell line HT29. The HT29 cell lines were grown in DMEM (cc-pro GmbH) supplemented with 10% heat-inactivated fetal calf serum (FCS, cc-pro GmbH), 1% penicillin (10000 IU) and streptomycin (10,000 μg ml^−1, cc-pro GmbH). Cells were kept as a monolayer culture in a humidified incubator (5% CO2 in air at 37° C.).
A stock solution of the nanoparticle formulation was kept in the dark at 4° C. Further dilution was performed in RPMI 1640 medium without phenol red supplemented with 10% FCS to reach a final photosensitizer concentration of 2 or 10 μM, respectively.
2-10^4 cells ml^−1 were seeded in micro plates ([…]). Cells were incubated with fresh medium (RPMI without phenol red) containing 10% FCS with 2 or 10 μM of the photosensitizer for 24 h before light exposure. Before photosensitization, cells were washed, incubated with RPMI without phenol red and 10% FCS, then irradiated at room temperature with a 652 nm diode laser (Ceralas PDT 652, biolitec AG) at a fixed fluence rate of 100 mW cm^−2 (50 J cm^−2). […]
The cell viability was assessed by the XTT assay. […]
The absorbance of the samples was measured with a spectrophotometer (Tecan Infinite 200, Tecan Group Ltd.) at a wavelength of 490 nm. In order to measure reference absorbance (to measure non-specific readings) a wavelength of 630-690 nm was used. […]

`O=P(O)(O)Oc1ccc(-c2c3nc(c(-c4ccc(OP(=O)(O)O)cc4)c4ccc([nH]4)c(-c4ccc(OP(=O)(O)O)cc4)c4nc(c(-c5ccc(OP(=O)(O)O)cc5)c5ccc2[nH]5)C=C4)C=C3)cc1` [pTPPP, 5,10,15,20-tetrakis(4-phosphonooxyphenyl)porphine] was tested, and the photodynamic activity was “no photodynamic activity”.
